Results: ChEMBL document CHEMBL1201862, “PubChem BioAssay data set” (2004)
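Tested at 5 concentrations; 48 h exposure; 96-well plates; endpoints linearly interpolated, else capped at highest concentration. GI50 is the concentration that inhibits growth by half.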 Activity calls are given as the source filed them. Cut-off read from the data, not from the text of the source: active = GI50 up to about 1.1 µM and inactive = higher.

Tests used:
Experiment in all cases: inhibition of tumour cell growth, NCI panel, 48 h
MOLT-4 = system: MOLT-4
HL-60 = system: HL-60
CAKI-1 = system: CAKI-1
ACHN = system: ACHN
SF-295 = system: SF-295
SF-539 = system: SF-539
UACC-62 = system: UACC-62
MDA-MB-435 = system: MDA-MB-435
TK-10 = system: TK-10
SW-620 = system: SW-620
NCI-H522 = system: NCI-H522
OVCAR-4 = system: OVCAR-4
A549 = system: A549
SNB-19 = system: SNB-19
NCI-H23 = system: NCI-H23
EKVX = system: EKVX
SNB-75 = system: SNB-75
IGROV-1 = system: IGROV-1
OVCAR-5 = system: OVCAR-5
NCI-H226 = system: NCI-H226
HOP-62 = system: HOP-62
T47D = system: T47D
786-0 = system: 786-0
HCT-116 = system: HCT-116
MDA-MB-231 = system: MDA-MB-231
BT-549 = system: BT-549
CCRF-CEM = system: CCRF-CEM
PC-3 = system: PC-3
SK-MEL-5 = system: SK-MEL-5
OVCAR-8 = system: OVCAR-8
KM12 = system: KM12
K562 = system: K562
Hs-578T = system: Hs-578T
M14 = system: M14
SF-268 = system: SF-268
U-251 = system: U-251
DU-145 = system: DU-145
COLO 205 = system: COLO 205
OVCAR-3 = system: OVCAR-3
LOX IMVI = system: LOX IMVI
SN12C = system: SN12C
NCI-H460 = system: NCI-H460
RXF 393 = system: RXF 393
SR = system: SR
HCC 2998 = system: HCC 2998
HT-29 = system: HT-29
HCT-15 = system: HCT-15
Malme-3M = system: Malme-3M
SK-MEL-2 = system: SK-MEL-2
NCI/ADR-RES = system: NCI/ADR-RES
SK-OV-3 = system: SK-OV-3
MCF7 = system: MCF7
A498 = system: A498
MDA-N = system: MDA-N
HOP-92 = system: HOP-92
UACC-257 = system: UACC-257
UO-31 = system: UO-31
SK-MEL-28 = system: SK-MEL-28
RPMI-8226 = system: RPMI-8226

## N/C(=N/c1ccc(O)cc1)S(=O)(=O)O
MOLT-4
  GI50: > 100 µM (inactive)
HL-60
  GI50: > 100 µM (inactive)
CAKI-1
  GI50: > 100 µM (inactive)
ACHN
  GI50: > 100 µM (inactive)
SF-295
  GI50: > 100 µM (inactive)
SF-539
  GI50: > 100 µM (inactive)
UACC-62
  GI50: > 100 µM (inactive)
MDA-MB-435
  GI50: > 100 µM (inactive)
TK-10
  GI50: > 100 µM (inactive)
SW-620
  GI50: > 100 µM (inactive)
NCI-H522
  GI50: > 100 µM (inactive)
OVCAR-4
  GI50: > 100 µM (inactive)
A549
  GI50: > 100 µM (inactive)
SNB-19
  GI50: > 100 µM (inactive)
NCI-H23
  GI50: > 100 µM (inactive)
EKVX
  GI50: > 100 µM (inactive)
SNB-75
  GI50: > 100 µM (inactive)
IGROV-1
  GI50: > 100 µM (inactive)
OVCAR-5
  GI50: > 100 µM (inactive)
NCI-H226
  GI50: > 100 µM (inactive)
HOP-62
  GI50: > 100 µM (inactive)
T47D
  GI50: > 100 µM (inactive)
786-0
  GI50: > 100 µM (inactive)
HCT-116
  GI50: > 100 µM (inactive)
MDA-MB-231
  GI50: > 100 µM (inactive)
BT-549
  GI50: > 100 µM (inactive)
CCRF-CEM
  GI50: > 100 µM (inactive)
PC-3
  GI50: > 100 µM (inactive)
SK-MEL-5
  GI50: > 100 µM (inactive)
OVCAR-8
  GI50: > 100 µM (inactive)
KM12
  GI50: > 100 µM (inactive)
K562
  GI50: > 100 µM (inactive)
Hs-578T
  GI50: > 100 µM (inactive)
M14
  GI50: > 100 µM (inactive)
SF-268
  GI50: > 100 µM (inactive)
U-251
  GI50: > 100 µM (inactive)
DU-145
  GI50: > 100 µM (inactive)
COLO 205
  GI50: > 100 µM (inactive)
OVCAR-3
  GI50: > 100 µM (inactive)
LOX IMVI
  GI50: > 100 µM (inactive)
SN12C
  GI50: > 100 µM (inactive)
NCI-H460
  GI50: > 100 µM (inactive)
RXF 393
  GI50: > 100 µM (inactive)
SR
  GI50: > 100 µM (inactive)
HCC 2998
  GI50: > 100 µM (inactive)
HT-29
  GI50: > 100 µM (inactive)
HCT-15
  GI50: > 100 µM
Malme-3M
  GI50: > 100 µM (inactive)
SK-MEL-2
  GI50: > 100 µM (inactive)
NCI/ADR-RES
  GI50: > 100 µM (inactive)
SK-OV-3
  GI50: > 100 µM (inactive)
MCF7
  GI50: > 100 µM (inactive)
A498
  GI50: > 100 µM (inactive)
MDA-N
  GI50: > 100 µM (inactive)
HOP-92
  GI50: > 100 µM (inactive)
UACC-257
  GI50: > 100 µM (inactive)
UO-31
  GI50: > 100 µM (inactive)

## CN(C)c1ccc(/C=c2/c3ccccc3n3nc4ccccc4c23)cc1
MOLT-4
  GI50: 17 µM (inactive)
SK-MEL-28
  GI50: 34.9 µM (inactive)
HL-60
  GI50: 21.2 µM (inactive)
CAKI-1
  GI50: 28.7 µM (inactive)
ACHN
  GI50: 38.6 µM (inactive)
SF-295
  GI50: 13.2 µM (inactive)
SF-539
  GI50: 24.4 µM (inactive)
UACC-62
  GI50: 15.3 µM (inactive)
MDA-MB-435
  GI50: 3.35 µM (inactive)
TK-10
  GI50: > 100 µM (inactive)
SW-620
  GI50: 12.8 µM (inactive)
NCI-H522
  GI50: 5.71 µM (inactive)
A549
  GI50: 16.3 µM (inactive)
SNB-19
  GI50: 76.9 µM (inactive)
NCI-H23
  GI50: 95.7 µM (inactive)
EKVX
  GI50: 44.3 µM (inactive)
SNB-75
  GI50: 2.49 µM (inactive)
IGROV-1
  GI50: 22.1 µM (inactive)
OVCAR-5
  GI50: > 100 µM (inactive)
HOP-62
  GI50: 49.4 µM (inactive)
T47D
  GI50: 6.47 µM (inactive)
786-0
  GI50: 27 µM (inactive)
HCT-116
  GI50: 16.8 µM (inactive)
MDA-MB-231
  GI50: 47 µM (inactive)
BT-549
  GI50: 13.8 µM (inactive)
CCRF-CEM
  GI50: 7.98 µM (inactive)
PC-3
  GI50: 8.04 µM (inactive)
SK-MEL-5
  GI50: 8.73 µM (inactive)
OVCAR-8
  GI50: 39.8 µM (inactive)
KM12
  GI50: 30.7 µM (inactive)
K562
  GI50: 9.53 µM (inactive)
Hs-578T
  GI50: 35.6 µM (inactive)
M14
  GI50: 21.7 µM (inactive)
SF-268
  GI50: 36.3 µM (inactive)
U-251
  GI50: 22.6 µM (inactive)
DU-145
  GI50: 75.5 µM (inactive)
COLO 205
  GI50: 9.64 µM (inactive)
OVCAR-3
  GI50: 28.2 µM (inactive)
LOX IMVI
  GI50: 18.7 µM (inactive)
SN12C
  GI50: 73.6 µM (inactive)
NCI-H460
  GI50: 30.1 µM (inactive)
RXF 393
  GI50: 11.9 µM (inactive)
SR
  GI50: 3.34 µM (inactive)
HT-29
  GI50: 13.7 µM (inactive)
RPMI-8226
  GI50: 10.7 µM (inactive)
HCT-15
  GI50: 8.32 µM
Malme-3M
  GI50: > 100 µM (inactive)
SK-MEL-2
  GI50: 23.4 µM (inactive)
NCI/ADR-RES
  GI50: 11.1 µM (inactive)
SK-OV-3
  GI50: 13.1 µM (inactive)
MCF7
  GI50: 13.8 µM (inactive)
A498
  GI50: 4.3 µM (inactive)
MDA-N
  GI50: 3.13 µM (inactive)
HOP-92
  GI50: 12.8 µM (inactive)
UACC-257
  GI50: 56 µM (inactive)
UO-31
  GI50: 39.6 µM (inactive)

## Oc1nnnc2c1sc1ncccc12
MOLT-4
  GI50: > 100 µM (inactive)
SK-MEL-28
  GI50: > 100 µM (inactive)
HL-60
  GI50: > 100 µM (inactive)
CAKI-1
  GI50: > 100 µM (inactive)
ACHN
  GI50: > 100 µM (inactive)
SF-295
  GI50: > 100 µM (inactive)
SF-539
  GI50: > 100 µM (inactive)
UACC-62
  GI50: > 100 µM (inactive)
MDA-MB-435
  GI50: > 100 µM (inactive)
TK-10
  GI50: > 100 µM (inactive)
SW-620
  GI50: > 100 µM (inactive)
NCI-H522
  GI50: > 100 µM (inactive)
OVCAR-4
  GI50: > 100 µM (inactive)
A549
  GI50: > 100 µM (inactive)
SNB-19
  GI50: > 100 µM (inactive)
NCI-H23
  GI50: > 100 µM (inactive)
EKVX
  GI50: 63.1 µM (inactive)
SNB-75
  GI50: 25.1 µM (inactive)
IGROV-1
  GI50: > 100 µM (inactive)
OVCAR-5
  GI50: > 100 µM (inactive)
NCI-H226
  GI50: > 100 µM (inactive)
HOP-62
  GI50: > 100 µM (inactive)
T47D
  GI50: > 100 µM (inactive)
786-0
  GI50: > 100 µM (inactive)
HCT-116
  GI50: > 100 µM (inactive)
MDA-MB-231
  GI50: 68.2 µM (inactive)
BT-549
  GI50: > 100 µM (inactive)
CCRF-CEM
  GI50: > 100 µM (inactive)
PC-3
  GI50: > 100 µM (inactive)
SK-MEL-5
  GI50: > 100 µM (inactive)
OVCAR-8
  GI50: > 100 µM (inactive)
KM12
  GI50: > 100 µM (inactive)
K562
  GI50: > 100 µM (inactive)
Hs-578T
  GI50: > 100 µM (inactive)
M14
  GI50: > 100 µM (inactive)
SF-268
  GI50: > 100 µM (inactive)
U-251
  GI50: > 100 µM (inactive)
DU-145
  GI50: > 100 µM (inactive)
COLO 205
  GI50: > 100 µM (inactive)
OVCAR-3
  GI50: > 100 µM (inactive)
LOX IMVI
  GI50: > 100 µM (inactive)
SN12C
  GI50: > 100 µM (inactive)
NCI-H460
  GI50: > 100 µM (inactive)
RXF 393
  GI50: > 100 µM (inactive)
SR
  GI50: 5.7 µM (inactive)
HCC 2998
  GI50: > 100 µM (inactive)
HT-29
  GI50: > 100 µM (inactive)
HCT-15
  GI50: > 100 µM
Malme-3M
  GI50: > 100 µM (inactive)
SK-MEL-2
  GI50: > 100 µM (inactive)
NCI/ADR-RES
  GI50: > 100 µM (inactive)
SK-OV-3
  GI50: 85.1 µM (inactive)
MCF7
  GI50: > 100 µM (inactive)
A498
  GI50: 39.8 µM (inactive)
MDA-N
  GI50: > 100 µM (inactive)
HOP-92
  GI50: 47.8 µM (inactive)
UACC-257
  GI50: > 100 µM (inactive)
UO-31
  GI50: 84.5 µM (inactive)
